The record followed here is ChEMBL document CHEMBL5653615 (J Biol Chem, 2013).

The source made the active and inactive calls. The calls are words filed in the database; no cut-off is given here.

The target of test [1] is Insulin receptor (Homo sapiens) (UniProt P06213). Put plainly: Inhibition of wild-type human Insulin receptor autophosphorylation in CHO-K1 cell lysate at 10 uM for 30 mins on ice followed by insulin stimulation for 10 mins by Western blot analysis. The following applies: time 40.0 min. In kind it is subcellular.
Test [2] deals with Mitogen-activated protein kinase kinase kinase 11 (Homo sapiens) (UniProt Q16584). Kind of test: Inhibition of human MAP3K11 at 18.6 nM by HotSpot assay relative to control.
The target in test [3] is Calcium/calmodulin-dependent protein kinase type II subunit gamma (Homo sapiens) (UniProt Q13555). Kind of test: Inhibition of human CAMK2g at 18.6 nM by HotSpot assay relative to control.
Test [4] addresses T1, Phosphorylase b kinase gamma catalytic chain, liver/testis isoform (Homo sapiens) (UniProt P15735).
T1 sequence (whole entry): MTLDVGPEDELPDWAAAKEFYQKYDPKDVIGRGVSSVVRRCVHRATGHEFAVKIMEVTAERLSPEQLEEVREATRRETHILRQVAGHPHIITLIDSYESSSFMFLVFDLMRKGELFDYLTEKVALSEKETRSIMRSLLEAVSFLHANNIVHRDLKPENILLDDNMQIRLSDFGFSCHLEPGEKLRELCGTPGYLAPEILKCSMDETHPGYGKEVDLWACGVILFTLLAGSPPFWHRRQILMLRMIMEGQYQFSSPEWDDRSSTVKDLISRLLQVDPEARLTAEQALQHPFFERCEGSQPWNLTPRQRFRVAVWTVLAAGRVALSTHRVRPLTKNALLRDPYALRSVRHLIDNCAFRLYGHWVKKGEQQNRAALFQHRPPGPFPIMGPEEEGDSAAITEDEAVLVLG
Put plainly: Inhibition of human PHKg2 at 18.6 nM by HotSpot assay relative to control.

Test [5] has as its target Tyrosine-protein kinase CSK (Homo sapiens) (UniProt P41240). Kind of test: Inhibition of human CSK at 18.6 nM by HotSpot assay relative to control.
For test [6], the target named is Serine/threonine-protein kinase PLK1 (Homo sapiens) (UniProt P53350). Put plainly: Inhibition of human PLK1 at 18.6 nM by HotSpot assay relative to control.
In test [7] the target is Cyclin-dependent kinase 4/cyclin D1 (Homo sapiens) (UniProt P11802+P24385). Kind of test: Inhibition of human CDK4/cyclin D1 at 18.6 nM by HotSpot assay relative to control. The test is classed as protein-complex assay.
The target of test [8] is ALK tyrosine kinase receptor (Homo sapiens) (UniProt Q9UM73). Put plainly: Inhibition of human ALK at 18.6 nM by HotSpot assay relative to control.
In test [9] the target is Mitogen-activated protein kinase 3 (Homo sapiens) (UniProt P27361). Kind of test: Inhibition of human ERK1 at 18.6 nM by HotSpot assay relative to control.
The target in test [10] is T2, Tyrosine-protein kinase receptor TYRO3 (Homo sapiens) (UniProt Q06418).
T2 sequence (whole entry): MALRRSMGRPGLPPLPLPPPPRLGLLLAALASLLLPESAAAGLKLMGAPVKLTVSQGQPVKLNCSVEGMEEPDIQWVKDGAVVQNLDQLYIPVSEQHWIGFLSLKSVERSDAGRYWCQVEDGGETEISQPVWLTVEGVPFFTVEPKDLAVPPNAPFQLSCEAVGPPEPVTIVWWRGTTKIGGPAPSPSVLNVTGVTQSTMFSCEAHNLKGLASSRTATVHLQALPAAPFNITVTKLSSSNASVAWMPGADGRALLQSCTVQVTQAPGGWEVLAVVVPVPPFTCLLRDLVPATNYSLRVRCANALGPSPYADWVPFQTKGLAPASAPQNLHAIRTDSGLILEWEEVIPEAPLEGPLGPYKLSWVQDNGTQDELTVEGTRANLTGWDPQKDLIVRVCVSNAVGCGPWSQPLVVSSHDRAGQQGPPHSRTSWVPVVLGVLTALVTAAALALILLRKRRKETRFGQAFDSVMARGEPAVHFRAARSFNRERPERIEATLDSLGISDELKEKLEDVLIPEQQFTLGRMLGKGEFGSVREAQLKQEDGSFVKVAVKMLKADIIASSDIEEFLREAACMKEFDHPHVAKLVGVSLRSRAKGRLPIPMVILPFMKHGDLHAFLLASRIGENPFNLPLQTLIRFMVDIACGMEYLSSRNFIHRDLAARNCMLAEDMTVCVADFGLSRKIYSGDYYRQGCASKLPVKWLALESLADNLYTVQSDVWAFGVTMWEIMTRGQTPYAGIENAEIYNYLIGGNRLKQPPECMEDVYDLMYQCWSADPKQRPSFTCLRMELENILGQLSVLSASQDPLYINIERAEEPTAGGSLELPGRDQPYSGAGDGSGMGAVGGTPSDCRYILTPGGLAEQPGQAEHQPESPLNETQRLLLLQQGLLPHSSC
Kind of test: Inhibition of human SKY at 1.82 nM by HotSpot assay relative to control.

Test [11] addresses Wee1-like protein kinase (Homo sapiens) (UniProt P30291). Kind of test: Inhibition of human WEE1 at 1.82 nM by HotSpot assay relative to control.
The target in test [12] is High affinity nerve growth factor receptor (Homo sapiens) (UniProt P04629). Put plainly: Inhibition of human TRKA at 1.82 nM by HotSpot assay relative to control.
Test [13] has as its target CDK4/Cyclin D3 (Homo sapiens) (UniProt P11802+P30281). Kind of test: Inhibition of human CDK4/cyclin D3 at 1.82 nM by HotSpot assay relative to control. The test is classed as protein-complex assay.
Test [14] addresses Dual specificity tyrosine-phosphorylation-regulated kinase 1B (Homo sapiens) (UniProt Q9Y463). Put plainly: Inhibition of human DYRK1B at 1.82 nM by HotSpot assay relative to control.
In test [15] the target is CDK3/Cyclin E (Homo sapiens) (UniProt P24864+Q00526). Put plainly: Inhibition of human CDK3/cyclin E at 1.82 nM by HotSpot assay relative to control. The test is classed as protein-complex assay.
Test [16] concerns the target CDK9/cyclin T1 (Homo sapiens) (UniProt O60563+P50750). Put plainly: Inhibition of human CDK9/cyclin T1 at 1.82 nM by HotSpot assay relative to control. The test is classed as protein-complex assay.

ALK tyrosine kinase receptor (Homo sapiens), sequence (Q9UM73 19-1620 limits assumed): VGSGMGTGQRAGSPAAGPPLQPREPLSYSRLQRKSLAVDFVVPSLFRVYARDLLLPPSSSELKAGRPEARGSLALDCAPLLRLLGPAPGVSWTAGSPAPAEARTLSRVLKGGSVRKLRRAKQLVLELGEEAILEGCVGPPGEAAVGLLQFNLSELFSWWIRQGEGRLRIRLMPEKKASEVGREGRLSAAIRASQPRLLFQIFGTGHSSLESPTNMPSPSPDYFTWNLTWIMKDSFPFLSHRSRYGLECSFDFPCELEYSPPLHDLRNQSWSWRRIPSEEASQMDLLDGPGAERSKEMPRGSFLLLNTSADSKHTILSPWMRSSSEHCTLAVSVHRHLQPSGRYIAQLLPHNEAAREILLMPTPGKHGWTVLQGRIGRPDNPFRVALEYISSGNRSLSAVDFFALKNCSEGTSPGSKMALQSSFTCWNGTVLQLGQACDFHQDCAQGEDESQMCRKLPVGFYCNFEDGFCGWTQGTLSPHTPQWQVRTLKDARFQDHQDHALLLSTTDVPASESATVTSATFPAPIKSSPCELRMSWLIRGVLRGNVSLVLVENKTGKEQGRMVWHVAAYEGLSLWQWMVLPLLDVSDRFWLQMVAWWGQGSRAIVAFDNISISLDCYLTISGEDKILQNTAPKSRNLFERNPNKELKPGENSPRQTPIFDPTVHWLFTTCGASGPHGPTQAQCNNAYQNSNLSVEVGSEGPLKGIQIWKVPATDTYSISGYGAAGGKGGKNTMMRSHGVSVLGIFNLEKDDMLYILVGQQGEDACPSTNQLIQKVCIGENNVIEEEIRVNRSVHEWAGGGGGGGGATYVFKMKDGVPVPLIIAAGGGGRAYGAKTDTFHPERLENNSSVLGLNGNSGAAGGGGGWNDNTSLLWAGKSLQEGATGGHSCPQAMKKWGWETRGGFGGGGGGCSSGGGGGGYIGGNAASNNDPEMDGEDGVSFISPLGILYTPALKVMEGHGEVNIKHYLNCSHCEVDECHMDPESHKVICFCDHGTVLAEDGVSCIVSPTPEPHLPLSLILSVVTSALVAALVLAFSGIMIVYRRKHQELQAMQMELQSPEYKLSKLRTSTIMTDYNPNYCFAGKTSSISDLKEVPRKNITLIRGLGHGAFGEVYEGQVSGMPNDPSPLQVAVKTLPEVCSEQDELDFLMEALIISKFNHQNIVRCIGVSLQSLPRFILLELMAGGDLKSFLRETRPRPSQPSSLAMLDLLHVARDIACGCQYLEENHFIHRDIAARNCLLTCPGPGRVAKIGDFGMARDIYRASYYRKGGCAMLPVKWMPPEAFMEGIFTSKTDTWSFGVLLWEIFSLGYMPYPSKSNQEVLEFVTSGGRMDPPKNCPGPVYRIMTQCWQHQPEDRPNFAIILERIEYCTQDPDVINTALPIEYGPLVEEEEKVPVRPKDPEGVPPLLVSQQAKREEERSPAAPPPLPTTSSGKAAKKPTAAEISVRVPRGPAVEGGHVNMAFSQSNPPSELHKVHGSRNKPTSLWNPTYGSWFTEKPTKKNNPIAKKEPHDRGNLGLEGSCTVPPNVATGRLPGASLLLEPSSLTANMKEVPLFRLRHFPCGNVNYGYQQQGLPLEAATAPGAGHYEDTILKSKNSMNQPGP
Calcium/calmodulin-dependent protein kinase type II subunit gamma (Homo sapiens), sequence (Q13555 whole entry, canonical isoform): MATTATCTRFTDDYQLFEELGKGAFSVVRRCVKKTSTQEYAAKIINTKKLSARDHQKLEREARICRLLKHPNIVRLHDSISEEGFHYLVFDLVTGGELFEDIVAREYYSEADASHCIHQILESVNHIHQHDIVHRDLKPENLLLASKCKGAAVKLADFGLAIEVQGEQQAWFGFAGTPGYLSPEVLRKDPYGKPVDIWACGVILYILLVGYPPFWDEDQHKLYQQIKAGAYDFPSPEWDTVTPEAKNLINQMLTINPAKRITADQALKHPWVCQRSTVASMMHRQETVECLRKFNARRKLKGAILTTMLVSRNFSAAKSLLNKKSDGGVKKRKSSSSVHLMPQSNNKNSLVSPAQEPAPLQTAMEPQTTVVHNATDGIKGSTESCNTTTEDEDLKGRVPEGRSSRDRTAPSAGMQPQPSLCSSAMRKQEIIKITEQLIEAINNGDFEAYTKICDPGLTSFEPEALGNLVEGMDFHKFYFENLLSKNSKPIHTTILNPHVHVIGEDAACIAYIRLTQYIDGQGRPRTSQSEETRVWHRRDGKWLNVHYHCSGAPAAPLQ
Mitogen-activated protein kinase kinase kinase 11 (Homo sapiens), sequence (Q16584 whole entry, looked up): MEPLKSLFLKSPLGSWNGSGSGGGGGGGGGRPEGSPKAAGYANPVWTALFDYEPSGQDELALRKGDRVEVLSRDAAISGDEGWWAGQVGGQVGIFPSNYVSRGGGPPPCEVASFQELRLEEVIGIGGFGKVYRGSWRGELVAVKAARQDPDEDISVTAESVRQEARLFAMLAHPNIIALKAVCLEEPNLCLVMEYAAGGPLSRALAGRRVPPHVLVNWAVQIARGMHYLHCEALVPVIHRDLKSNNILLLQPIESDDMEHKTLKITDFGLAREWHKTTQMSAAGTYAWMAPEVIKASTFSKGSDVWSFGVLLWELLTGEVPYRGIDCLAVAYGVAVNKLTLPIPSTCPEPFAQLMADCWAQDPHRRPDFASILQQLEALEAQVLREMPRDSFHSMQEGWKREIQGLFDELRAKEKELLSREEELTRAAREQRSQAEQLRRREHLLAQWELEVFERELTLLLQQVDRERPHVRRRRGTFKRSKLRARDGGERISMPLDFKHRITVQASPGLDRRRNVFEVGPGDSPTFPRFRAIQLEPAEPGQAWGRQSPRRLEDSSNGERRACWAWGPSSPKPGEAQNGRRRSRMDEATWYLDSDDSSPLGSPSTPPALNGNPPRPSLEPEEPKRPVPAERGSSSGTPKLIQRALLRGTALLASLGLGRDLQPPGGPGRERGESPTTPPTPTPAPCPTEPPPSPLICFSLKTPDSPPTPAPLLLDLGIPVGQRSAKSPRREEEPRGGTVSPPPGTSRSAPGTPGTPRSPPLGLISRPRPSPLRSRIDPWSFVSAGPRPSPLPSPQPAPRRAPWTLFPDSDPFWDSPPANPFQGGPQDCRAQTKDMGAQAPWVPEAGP
Mitogen-activated protein kinase 3 (Homo sapiens), sequence (P27361 whole entry): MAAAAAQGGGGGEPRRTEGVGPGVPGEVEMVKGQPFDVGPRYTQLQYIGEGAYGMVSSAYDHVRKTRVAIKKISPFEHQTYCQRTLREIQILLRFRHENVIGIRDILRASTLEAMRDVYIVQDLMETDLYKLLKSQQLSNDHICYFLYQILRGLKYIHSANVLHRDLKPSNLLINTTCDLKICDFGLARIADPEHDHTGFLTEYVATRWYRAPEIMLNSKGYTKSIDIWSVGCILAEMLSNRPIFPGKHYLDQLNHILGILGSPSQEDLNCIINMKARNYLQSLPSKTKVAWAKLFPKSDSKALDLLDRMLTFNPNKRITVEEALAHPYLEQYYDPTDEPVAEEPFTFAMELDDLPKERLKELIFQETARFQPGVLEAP
High affinity nerve growth factor receptor (Homo sapiens), sequence (P04629 33-796 limits assumed): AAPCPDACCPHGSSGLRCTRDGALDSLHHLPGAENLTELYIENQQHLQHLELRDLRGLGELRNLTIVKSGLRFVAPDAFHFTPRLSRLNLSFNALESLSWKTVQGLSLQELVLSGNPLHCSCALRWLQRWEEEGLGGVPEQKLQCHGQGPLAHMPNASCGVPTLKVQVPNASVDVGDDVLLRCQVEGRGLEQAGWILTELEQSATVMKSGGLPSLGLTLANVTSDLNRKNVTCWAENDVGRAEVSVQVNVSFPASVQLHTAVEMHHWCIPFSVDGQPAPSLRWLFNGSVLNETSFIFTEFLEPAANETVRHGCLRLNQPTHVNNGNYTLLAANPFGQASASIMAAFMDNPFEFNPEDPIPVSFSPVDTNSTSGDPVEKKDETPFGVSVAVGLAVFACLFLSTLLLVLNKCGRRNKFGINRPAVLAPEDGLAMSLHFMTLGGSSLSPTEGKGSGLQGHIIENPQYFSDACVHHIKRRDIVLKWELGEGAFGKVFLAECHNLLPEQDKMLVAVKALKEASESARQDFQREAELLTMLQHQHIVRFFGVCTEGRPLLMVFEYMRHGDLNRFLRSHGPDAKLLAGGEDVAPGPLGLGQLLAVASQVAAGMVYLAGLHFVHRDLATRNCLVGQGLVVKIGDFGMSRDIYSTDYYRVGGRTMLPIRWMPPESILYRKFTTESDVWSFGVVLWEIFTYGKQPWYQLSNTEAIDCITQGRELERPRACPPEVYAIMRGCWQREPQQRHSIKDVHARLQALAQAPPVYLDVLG
CDK3/Cyclin E (Homo sapiens), sequence (P24864 whole entry, looked up): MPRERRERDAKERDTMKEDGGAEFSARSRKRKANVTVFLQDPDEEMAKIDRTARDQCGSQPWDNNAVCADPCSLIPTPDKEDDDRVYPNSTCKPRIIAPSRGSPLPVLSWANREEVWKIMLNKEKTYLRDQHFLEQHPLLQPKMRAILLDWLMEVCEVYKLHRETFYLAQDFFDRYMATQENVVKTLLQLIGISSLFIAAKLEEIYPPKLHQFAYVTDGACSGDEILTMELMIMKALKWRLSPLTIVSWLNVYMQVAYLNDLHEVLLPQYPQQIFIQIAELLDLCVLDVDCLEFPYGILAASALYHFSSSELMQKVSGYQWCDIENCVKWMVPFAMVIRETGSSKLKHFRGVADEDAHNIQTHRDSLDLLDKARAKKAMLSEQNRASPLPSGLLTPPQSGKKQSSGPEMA
CDK3/Cyclin E (Homo sapiens), sequence (Q00526 whole entry, looked up): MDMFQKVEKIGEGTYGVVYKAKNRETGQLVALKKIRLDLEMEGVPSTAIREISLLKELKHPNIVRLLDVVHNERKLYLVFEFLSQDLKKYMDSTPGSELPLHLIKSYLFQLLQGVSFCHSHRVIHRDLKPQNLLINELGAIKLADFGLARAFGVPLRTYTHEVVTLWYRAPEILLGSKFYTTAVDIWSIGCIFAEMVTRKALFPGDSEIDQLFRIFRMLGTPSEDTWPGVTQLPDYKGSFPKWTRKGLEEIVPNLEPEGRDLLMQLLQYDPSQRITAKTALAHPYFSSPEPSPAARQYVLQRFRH

With `Oc1n[nH]c2nnc(-c3c(-c4ccccc4)nn4ccccc34)cc12`, in [1], the inhibition entry is “Active”.

Regarding `C[C@]1(O)C[C@@H](c2nc(-c3ccc4ccc(-c5ccccc5)nc4c3)c3c(N)nccn32)C1`, the inhibition in [2] is 0.31%; in test [3], 2.76%; in [4], -2.29%; in test [5], 3.89%; in [6], -7.65%; in test [7] it was -1.49%. The inhibition was -6.1% in test [8] and -9.66% in [9].

As for `C[C@@]1(C(=O)Nc2ccc(F)nc2)CCCN1c1nc(Nc2cc(C3CC3)n[nH]2)c2cccn2n1`, the inhibition in test [10] was -1.49%; in test [11] it was 1.94%; in [12] it was 21.1%; in test [13], -0.76%; in [14], -1.57%; in test [15] it was 0.42%. The inhibition in test [16] came to 1.5%.
